Counter-ions that a name gives are not always drawn. Like-named read-outs stand apart in the source and are kept apart here.
Legend:
[1] = system: Gastric Secretion, in the Pyloric Ligated Rat; experiment: Effects on gastric secretion in the pyloric ligated rat (Shay method); assay type: in vivo; settings: intraduodenal, Table 1, 100 mg/kg i.d., 3 hours, mean of a number of experiments vs vehicle control
Method: 1. Effects on Gastric Secretion, in the Pyloric Ligated Rat.
The method as described by Shay et al. (Gastroenterol. 26, 906 (1945)) was used. After overnight starvation, the pylorus was ligated under halothane anaesthesia, and the compound under test or vehicle only administered intraduodenally and the rats allowed to recover. They were sacrificed three hours later and the gastric juice removed. After measurement of the volume of secretion, its hydrogen ion concentration [H^+ ] was determined by titration with 0.05 n NaOH to pH 7. Groups of 4-6 animals were used for each treatment and the inhibitory effects of the compound were ascertained by comparison of the mean values obtained with those from a simultaneously set up control group of animals which received vehicle only. Students `t` test was applied for significance between groups. The mean values for % inhibition obtained for a number of experiments are shown in the following Table 1, the dosage being 100 mg/kg i.d.

[2] = system: indomethacin induced gastric damage in the rat; experiment: Anti-ulcer activity: inhibition of indomethacin induced gastric damage; assay type: in vivo; settings: po, 5 h, Table 2, 100 mg/kg orally, 30 min prior to and 2 h after indomethacin 15 mg/kg s.c.
Method: This was assessed by the inhibition of indomethacin induced gastric damage in the rat according to the method of Elegbe (Israeli J. Med. Sci. 10, 1451 (1974)).
Rats were starved overnight, given indomethacin subcutaneously (15 mg/kg) and sacrificed 5 hours later. Stomachs were inflated with 0.9% saline, cut along the greater curvature, pinned out and scored for gastric damage by the following system:
Score 1-3 according to the degree of erythema and slight haemorrhage.
Score 4-6 according to the degree of mucosal erosion.
Score 7-9 according to the depth of gastric damage. Groups of 7 rats were used for each treatment level of the compound under test and a similar group receiving vehicle only was set up on each occasion of testing. Compound or vehicle was administered orally 30 minutes prior to, and at 2 hours after, dosing with indomethacin. Mean values per treatment were obtained using the above scoring system and the Mann Witney test applied for significance between such values. The mean inhibition of gastric damage from a number of experiments is shown in the following Table 2; the dosage being 100 mg/kg orally.

[3] = J. Pharm. Sci. 58, 138-141 (1969); cited from earlier work
[4] = system: indomethacin induced gastric damage in the rat; experiment: Anti-ulcer activity: inhibition of indomethacin induced gastric damage; assay type: in vivo; settings: po, 5 h, Table 2, *50 mg/kg orally, 30 min prior to and 2 h after indomethacin 15 mg/kg s.c.
[5] = Farmaco, Ed. Sci. 19, 668-702 (1964); cited from earlier work
[6] = read-out: % Inhibition, Volume (of gastric secretion)
[7] = read-out: % Inhibition, [H^+ ] (hydrogen ion concentration of gastric juice)

Compound `CN(C)CCCON=C(c1ccccc1)c1ccc2ccccc2n1` [Compound 30, phenyl 2-quinolinyl ketone, O-3-N,N-dimethylaminopropyl oxime.1 fumaric acid] has an inhibition in vivo at 100 mg/kg [1, 6] of 72%, an inhibition in vivo at 100 mg/kg [1, 7] of 37% and an inhibition in vivo at 100 mg/kg [2] of 79%.

In the case of “phenyl 2-pyridinyl ketone, O-di(m)ethylaminoethyl oxime”, the anti-androgenic activity [3] is given as “showed anti-androgenic activity” and the “effective dose versus toxic dose” value [3] is given as “the effective dose was very close to the toxic dose”.

In the case of `CO/N=C(/c1ccc(F)cc1)c1cnccn1` [Compound 7, 4-fluorophenyl pyrazinyl ketone, O-methyl oxime], the inhibition in vivo at 100 mg/kg [1, 6] is reported as 72% and the inhibition in vivo at 100 mg/kg [2] is reported as 96%.

In the case of `CN(C)CCCON=C(c1ccccc1)c1nc2ccccc2s1` [Compound 33, 2-benzothiazolyl phenyl ketone, O-3-N,N-dimethylaminopropyl oxime.1 fumaric acid], the inhibition in vivo at 100 mg/kg [1, 6] is reported as 55%, the inhibition in vivo at 100 mg/kg [1, 7] is reported as 38% and the inhibition in vivo at 100 mg/kg [2] is reported as 62%.

Compound `CON=C(c1ccccc1)c1c(C)nc2ccccn12` [Compound 14, 2-methyl-3-imidazo[1,2-a]pyridinyl phenyl ketone, O-methyl oxime.HCl] has an inhibition in vivo at 100 mg/kg [1, 6] of 59%, an inhibition in vivo at 100 mg/kg [1, 7] of 23% and an inhibition in vivo at 100 mg/kg [2] of 78%.

`CO/N=C(\c1ccccc1)c1cnc2ccccn12` [Compound 12, 3-imidazo[1,2-a]pyridinyl phenyl ketone, O-methyl oxime] showed an inhibition in vivo at 100 mg/kg [1, 6] of 55%, an inhibition in vivo at 100 mg/kg [1, 7] of 25% and an inhibition in vivo at 100 mg/kg [2] of 61%.

`CN(C)CCCON=C(c1ccccc1)c1cnc2ccccn12` [Compound 29, 3-imidazo[1,2-a]pyridinyl phenyl ketone, O-3-N,N-dimethylaminopropyl oxime.1/2 fumaric acid] gave an inhibition in vivo at 100 mg/kg [2] of 75%.

Work on `CO/N=C(\c1ccccc1)c1nccs1` [Compound 21, phenyl 2-thiazolyl ketone, O-methyl oxime] yielded an inhibition in vivo at 100 mg/kg [1, 6] of 57% and an inhibition in vivo at 100 mg/kg [2] of 89%.

Compound `C=CCON=C(c1ccccc1)c1cnccn1` [Compound 25, phenyl pyrazinyl ketone, O-allyl oxime] has an inhibition in vivo at 100 mg/kg [1, 6] of 87%, an inhibition in vivo at 100 mg/kg [1, 7] of 27% and an inhibition in vivo at 100 mg/kg [2] of 56%.

Work on `CO/N=C(/c1ccccc1)c1cnccn1` [Compound 1, Phenyl pyrazinyl ketone, O-methyl oxime] yielded an inhibition in vivo at 100 mg/kg [1, 6] of 77%, an inhibition in vivo at 100 mg/kg [1, 7] of 23% and an inhibition in vivo at 50 mg/kg [4] of 74%.

`CO/N=C(/c1ccccc1)c1ncc[nH]1` [Compound 18, 2-imidazolyl phenyl ketone, O-methyl oxime] showed an inhibition in vivo at 100 mg/kg [1, 6] of 87% and an inhibition in vivo at 100 mg/kg [2] of 91%.

Work on `CON=C(c1cnccn1)c1ccco1` [Compound 23, 2-furanyl pyrazinyl ketone, O-methyl oxime] yielded an inhibition in vivo at 100 mg/kg [1, 6] of 67% and an inhibition in vivo at 100 mg/kg [2] of 98%.

For `COc1ccc(C(=NOCCN(C)C)c2cccs2)cc1` [4-methoxyphenyl 2-thienyl ketone, O-dimethylaminoethyl oxime], the “effective dose versus toxic dose” value [3] is listed as “the effective dose was very close to the toxic dose”.

With `CN(C)CCCON=C(c1ccccc1)c1nccn1C` [Compound 32, 1-methyl-2-imidazolyl phenyl ketone, O-3-N,N-dimethylaminopropyl oxime] the inhibition in vivo at 100 mg/kg [1, 6] was 83% and the inhibition in vivo at 100 mg/kg [1, 7] was 41%.

For `C#CCON=C(c1ccccc1)c1cnccn1` [Compound 26, phenyl pyrazinyl ketone, O-propargyl oxime], the inhibition in vivo at 100 mg/kg [2] was 53%.

Work on `CON=C(c1ccccc1)c1nc2ccccc2[nH]1` [Compound 20, 2-benzimidazolyl phenyl ketone, O-methyl oxime] yielded an inhibition in vivo at 100 mg/kg [2] of 78%.

Compound `CO/N=C(\c1ccccc1)c1ncc[nH]1` [Compound 17, 2-imidazolyl phenyl ketone, O-methyl oxime] has an inhibition in vivo at 100 mg/kg [1, 6] of 55%, an inhibition in vivo at 100 mg/kg [1, 7] of 26% and an inhibition in vivo at 100 mg/kg [2] of 100%.

`CO/N=C(/c1ccc(Cl)cc1)c1cnccn1` [Compound 2, 4-chlorophenyl pyrazinyl ketone, O-methyl oxime] gave an inhibition in vivo at 100 mg/kg [1, 6] of 68%, an inhibition in vivo at 100 mg/kg [1, 7] of 21% and an inhibition in vivo at 100 mg/kg [2] of 68%.

`CN(C)CCON=C(c1ccccc1)c1cnccn1` [Compound 28, phenyl pyrazinyl ketone, O-2,N,N-dimethylaminoethyl oxime.1 maleic acid] gave an inhibition in vivo at 100 mg/kg [1, 6] of 56% and an inhibition in vivo at 100 mg/kg [1, 7] of 59%.

In the case of `CN(C)CCCON=C(c1ccccc1)c1cnccn1` [Compound 27, phenyl pyrazinyl ketone, O-3-N,N-dimethylaminopropyl oxime.1 maleic acid], the inhibition in vivo at 100 mg/kg [1, 6] is reported as 67%, the inhibition in vivo at 100 mg/kg [1, 7] is reported as 49% and the inhibition in vivo at 100 mg/kg [2] is reported as 92%.

`CN(C)CCCO/N=C(\c1ccccc1)c1nccs1` [Compound 34, phenyl 2-thiazolyl ketone, O-3-N,N-dimethylaminopropyl oxime.1 fumaric acid] gave an inhibition in vivo at 100 mg/kg [1, 6] of 82% and an inhibition in vivo at 100 mg/kg [1, 7] of 42%.

Compound `CN(C)CCCON=C(c1ccccc1)c1ncc[nH]1` [Compound 31, 2-imidazolyl phenyl ketone, O-3-N,N-dimethylaminopropyl oxime] has an inhibition in vivo at 100 mg/kg [1, 6] of 80%, an inhibition in vivo at 100 mg/kg [1, 7] of 72% and an inhibition in vivo at 100 mg/kg [2] of 56%.

In the case of `C[N+](C)(C)CCON=C(c1ccccc1)c1ccccn1` [phenyl 2-pyridinyl ketone, O-dimethylaminoethyl oxime methiodide], the acetylcholine antagonistic activity [5] is given as “showed acetylcholine antagonistic activity”.

With `N#CCON=C(c1ccccc1)c1cnccn1` [Compound 24, Phenyl pyrazinyl ketone, O-cyanomethyl oxime] the inhibition in vivo at 100 mg/kg [2] was 93%.

For `CO/N=C(\c1ccccc1)c1cn2ccccc2n1` [Compound 10, 2-imidazo[1,2-a]pyridinyl phenyl ketone, O-methyl oxime], the inhibition in vivo at 100 mg/kg [1, 6] was 66%, the inhibition in vivo at 100 mg/kg [1, 7] was 23% and the inhibition in vivo at 50 mg/kg [4] was 89%.

In the case of `CO/N=C(/c1ccccc1)c1cn2ccccc2n1` [Compound 11, 2-imidazo[1,2-a]pyridinyl phenyl ketone, O-methyl oxime], the inhibition in vivo at 100 mg/kg [1, 6] is reported as 77% and the inhibition in vivo at 50 mg/kg [4] is reported as 67%.

`CO/N=C(\c1ccc(F)cc1)c1cnccn1` [Compound 8, 4-fluorophenyl pyrazinyl ketone, O-methyl oxime] showed an inhibition in vivo at 100 mg/kg [1, 6] of 72% and an inhibition in vivo at 100 mg/kg [2] of 96%.

For `CON=C(c1ccccc1)c1nccn1C` [Compound 19, 1-methyl-2-imidazolyl phenyl ketone, O-methyl oxime], the inhibition in vivo at 100 mg/kg [1, 6] was 69%, the inhibition in vivo at 100 mg/kg [1, 7] was 49% and the inhibition in vivo at 100 mg/kg [2] was 91%.

Compound `CON=C(c1ccccc1)c1c(C)cc2ccccn12` [Compound 9, 2-methyl-3-indolizinyl phenyl ketone, O-methyl oxime] has an inhibition in vivo at 100 mg/kg [1, 6] of 83% and an inhibition in vivo at 100 mg/kg [1, 7] of 52%.

In the case of `CO/N=C(/c1ccccc1)c1nccs1` [Compound 22, phenyl 2-thiazolyl ketone, O-methyl oxime.HBr], the inhibition in vivo at 100 mg/kg [1, 6] is reported as 68% and the inhibition in vivo at 100 mg/kg [2] is reported as 78%.

In the case of `CN(C)CCON=C(Cc1ccccn1)c1ccccc1` [phenyl 2-picolinyl ketone, O-dimethylaminoethyl oxime], the anti-androgenic activity [3] is given as “showed anti-androgenic activity” and the “effective dose versus toxic dose” value [3] is given as “the effective dose was very close to the toxic dose”.
